One assay addresses T1, Ba/F3-Syk cells (Homo sapiens, UniProt P43405).
T1 construct: fused on or other part: Possible but unprinted fusion partner: TEL (ETV6), the usual partner for Ba/F3 lines transformed by Syk; Nothing on a partner is printed
As to the kind of experiment: Ba/F3 Proliferation Assay, Ba/F3-Syk cells (Resazurin). It counts as cell-based. The following applies: 48-hour incubation.

Assay [1] deals with Ba/F3-WT (wild type) cells. As to the kind of experiment: Ba/F3 Proliferation Assay, Ba/F3-WT (wild type) cells with mIL-3 (Resazurin). It is filed as cell-based. The following applies: Ba/F3-WT cells +mIL-3, 48-hour incubation. Background: The colour change of resazurin is a common sign of viable cells or microbes.

The EC50 is the concentration giving half of the maximal effect. Consider `CC(C)n1ccc(-c2cc(O[C@H](C)[C@@H]3CNCCO3)c3nccnc3c2)c1` [Compound 8.13], for which the EC50 on Ba/F3-Syk cells turned out to be 7.3 nM; in assay [1] it was 371 nM.
As for `CCn1ccc(-c2cc(O[C@H](C)[C@@H]3CNCCO3)c3nccnc3c2)c1` [Compound 8.14, 7-(1-ethyl-1H-pyrrol-3-yl)-5-[(1R)-1-[(2S)-morpholin-2-yl]ethoxy]quinoxaline], the EC50 is 8.3 nM on Ba/F3-Syk cells and 435 nM in assay [1] (Mus musculus, BaF3, 48 h).
The matching figures for `C[C@@H](Oc1cc(-c2ccn(CC(F)F)c2)cc2nccnc12)[C@@H]1CNCCO1` [Compound 8.15, 7-[1-(2,2-difluoroethyl)-1H-pyrrol-3-yl]-5-[(1R)-1-[(2S)-morpholin-2-yl]ethoxy]quinoxaline]: 8.9 nM and 358 nM.
On the same counts, the results for `CCn1ccc(-c2cc(OC[C@@H]3CNCC4(CCC4)O3)c3nccnc3c2)c1` [Compound 8.16, 7-(1-ethyl-1H-pyrrol-3-yl)-5-{[(6S)-5-oxa-8-azaspiro[3.5]nonan-6-yl]methoxy}quinoxaline] are 9.4 nM and 822 nM.
On the same counts, the results for `COCCn1ccc(-c2cc(OC[C@@H]3CNCC4(CCC4)O3)c3nccnc3c2)c1` [Compound 8.18, 7-[1-(2-methoxyethyl)-1H-pyrrol-3-yl]-5-{[(6S)-5-oxa-8-azaspiro[3.5]nonan-6-yl]methoxy}quinoxaline] are 8.4 nM and 335 nM.
As for `FC(F)Cn1ccc(-c2cc(OC[C@@H]3CNCCCO3)c3nccnc3c2)c1` [Compound 8.20, 7-[1-(2,2-difluoroethyl)-1H-pyrrol-3-yl]-5-{[(2S)-1,4-oxazepan-2-yl]methoxy}quinoxaline], the EC50 turned out to be 27.6 nM on Ba/F3-Syk cells and 1860 nM in assay [1] (Mus musculus, BaF3, 48 h).
The matching figures for `CCn1ccc(-c2cc(OC[C@@H]3CNCC(C)(C)O3)c3nccnc3c2)c1` [Compound 8.21, 5-{[(2S)-6,6-dimethylmorpholin-2-yl]methoxy}-7-(1-ethyl-1H-pyrrol-3-yl)quinoxaline]: 10 nM and 951 nM.
Consider `CCn1ccc(-c2cc(OC[C@@H]3CNCCO3)c3nccnc3c2)c1` [Compound 8.22, 7-(1-ethyl-1H-pyrrol-3-yl)-5-{[(2S)-morpholin-2-yl]methoxy}quinoxaline], for which the EC50 at Ba/F3-Syk cells is 12.6 nM; in assay [1] (Mus musculus, BaF3, 48 h), 655 nM.
On the same counts, the results for `CC(C)n1ccc(-c2cc(OC[C@@H]3CNC[C@@H](C)O3)c3nccnc3c2)c1` [Compound 8.23, 5-{[(2S,6R)-6-methylmorpholin-2-yl]methoxy}-7-[1-(propan-2-yl)-1H-pyrrol-3-yl]quinoxaline] are 2.7 nM and 421 nM.
As to `CC[C@@H](C)n1ccc(-c2cc(OC[C@@H]3CNCCO3)c3nccnc3c2)c1` [Compound 8.24, 7-{1-[(2R)-butan-2-yl]-1H-pyrrol-3-yl}-5-{[(2S)-morpholin-2-yl]methoxy}quinoxaline], the EC50 at Ba/F3-Syk cells is 12.9 nM; in assay [1] (Mus musculus, BaF3, 48 h), > 1000 nM.
With `CC[C@H](C)n1ccc(-c2cc(OC[C@@H]3CNCCO3)c3nccnc3c2)c1` [Compound 8.25, 7-{1-[(2S)-butan-2-yl]-1H-pyrrol-3-yl}-5-{[(2S)-morpholin-2-yl]methoxy}quinoxaline], the EC50 at Ba/F3-Syk cells is 11.5 nM; in assay [1] (Mus musculus, BaF3, 48 h) it was > 1000 nM.
As for `Cn1cc(-c2cc3ncccc3c(O[C@H]([C@@H]3CNCCO3)C(F)(F)F)n2)cn1` [Compound 10.2, 7-(1-methyl-1H-pyrazol-4-yl)-5-[(1R)-2,2,2-trifluoro-1-[(2S)-morpholin-2-yl]ethoxy]-1,6-naphthyridine], the EC50 on Ba/F3-Syk cells was 839 nM; in assay [1] (Mus musculus, BaF3, 48 h), > 10000 nM.
As for `CC1(C)CNC[C@@H](COc2nc(-c3cnn4c3CCCC4)cc3ncccc23)O1` [Compound 10.3, 5-{[(2S)-6,6-dimethylmorpholin-2-yl]methoxy}-7-(4H,5H,6H,7H-pyrazolo[1,5-a]pyridin-3-yl}-1,6-naphthyridine], the EC50 on Ba/F3-Syk cells is 365 nM; in assay [1] (Mus musculus, BaF3, 48 h), > 10000 nM.
With `c1cnc2cc(-c3cnn4c3CCCC4)nc(OC[C@@H]3CNCCO3)c2c1` [Compound 10.4, 5-{[(2S)-morpholin-2-yl]methoxy}-7-{4H,5H,6H,7H-pyrazolo[1,5-a]pyridin-3-yl}-1,6-naphthyridine], the EC50 turned out to be 663 nM on Ba/F3-Syk cells and 8090 nM in assay [1] (Mus musculus, BaF3, 48 h).
For `Cn1cc(-c2cc3ncccc3c(O[C@@H]([C@@H]3CNCCO3)C(F)(F)F)n2)cn1` [Compound 10.5, 7-(1-methyl-1H-pyrazol-4-yl)-5-[(1S)-2,2,2-trifluoro-1-[(2S)-morpholin-2-yl]ethoxy]-1,6-naphthyridine], the EC50 on Ba/F3-Syk cells was 798 nM; in assay [1] (Mus musculus, BaF3, 48 h) it was 3280 nM.
The matching figures for `CC(C)n1cc(-c2cc3ncccc3c(OC[C@]3(C)CNCCO3)n2)cn1` [Compound 10.6, 5-{[(2S)-2-methylmorpholin-2-yl]methoxy}-7-[1-(propan-2-yl)-1H-pyrazol-4-yl]-1,6-naphthyridine]: 106 nM and 754 nM.
On the same counts, the results for `CC(C)n1cc(-c2cc3ncccc3c(OC[C@@]3(C)CNCCO3)n2)cn1` [Compound 10.8, 5-{[(2R)-2-methylmorpholin-2-yl]methoxy}-7-[1-(propan-2-yl)-1H-pyrazol-4-yl]-1,6-naphthyridine] are 81.1 nM and 1900 nM.
The matching figures for `Cn1ccc(-c2cc3ncccc3c(OC[C@@]3(C)CNCCO3)n2)c1` [Compound 10.9, 7-(1-methyl-1H-pyrrol-3-yl)-5-{[(2R)-2-methylmorpholin-2-yl]methoxy}-1,6-naphthyridine]: 148 nM and 7040 nM.
As for `Cn1cc(-c2cc3ncccc3c(OC[C@@H]3CNCC(C)(C)CO3)n2)cn1` [Compound 10.10, 5-{[(2S)-6,6-dimethyl-1,4-oxazepan-2-yl]methoxy}-7-(1-methyl-1H-pyrazol-4-yl)-1,6-naphthyridine], the EC50 worked out at 271 nM on Ba/F3-Syk cells and 3680 nM in assay [1] (Mus musculus, BaF3, 48 h).
The matching figures for `CC1(C)CNC[C@@H](COc2nc(-c3cnn(C(C)(C)C)c3)cc3ncccc23)OC1` [Compound 10.11, 7-(1-tert-butyl-1H-pyrazol-4-yl)-5-{[(2S)-6,6-dimethyl-1,4-oxazepan-2-yl]methoxy}-1,6-naphthyridine]: 80.8 nM and 4140 nM.
On the same counts, the results for `CC(C)n1cc(-c2cc3ncccc3c(OC[C@@H]3CNCC(C)(C)CO3)n2)cn1` [Compound 10.12, 5-{[(2S)-6,6-dimethyl-1,4-oxazepan-2-yl]methoxy}-7-[1-(propan-2-yl)-1H-pyrazol-4-yl]-1,6-naphthyridine] are 86.1 nM and 1920 nM.
As for `CC[C@@]1(COc2nc(-c3cnn(C(C)(C)C)c3)cc3ncccc23)CNCCO1` [Compound 10.14, 7-(1-tert-butyl-1H-pyrazol-4-yl)-5-{[(2S)-2-ethylmorpholin-2-yl]methoxy}-1,6-naphthyridine], the concentration giving a half-maximal response (EC50) at Ba/F3-Syk cells was 281 nM; in assay [1] (Mus musculus, BaF3, 48 h) it was 2550 nM.
For the compound `CC[C@@]1(COc2nc(-c3cnn(C(C)C)c3)cc3ncccc23)CNCCO1` [Compound 10.16, 5-{[(2S)-2-ethylmorpholin-2-yl]methoxy}-7-[1-(propan-2-yl)-1H-pyrazol-4-yl]-1,6-naphthyridine], the EC50 at Ba/F3-Syk cells is 259 nM; in assay [1] (Mus musculus, BaF3, 48 h), 1210 nM.
The matching figures for `C1=C(c2cc(OC[C@@H]3CNCCO3)c3cccnc3c2)CCC1` [Compound 11.1, 7-(cyclopent-1-en-1-yl)-5-{[(2S)-morpholin-2-yl]methoxy}quinoline]: 1360 nM and > 10000 nM.

The values above are taken from US20250263408A1 (Uniquest Pty Ltd, priority 2022, published 2025).
